Results reported in patent publication US5084082A, “Soybean plants with dominant selectable trait for herbicide resistance” (priority 1990, dated 1992).

Experiments:
[1] = system: Williams 82 (wild type soybean cultivar); assay: Pilot study in modified Hydropot Solo hydroponic system; format: in vivo; conditions: Williams 82, 100 ppb in nutrient solution, 10 days after planting
Method: (§1) A pilot study was conducted to determine whether the modified Hydropot Solo system could be used to consistently differentiate between previously isolated (Sebastian and Chaleff, 1987. Crop Science 27:948-952) SU-tolerant mutants and wild type soybean plants. Four Hydropot Solo units were prepared with each planting tank containing a lower layer of pea gravel and an upper layer of fine vermiculite as described previously. Each reservoir was filled with tap water supplemented with 1/4 tablespoon of Miracle Grow soluble fertilizer per gallon. One hydroponic unit served as an untreated control while the nutrient solution of each of the other three was supplemented with either 100, 300, or 1000 ppb of an experimental sulfonylurea herbicide Compound 12. Ten seeds each of Williams 82 (wild type soybean cultivar), mutant 1-184A, mutant 1-183A, mutant 1-166A, and mutant 1-126A were then planted 2 cm deep into the vermiculite layer of each of the four hydroponic units. The programmable timer was set to irrigate the planting tanks for four 30-minute intervals during each 24-hour period. […] Differences between mutant and wild type became less dramatic as the herbicide concentration increased to 1000 ppb. […] These observations confirmed that the modified Hydropot system could be used to select for herbicide tolerance. […]

[2] = system: SU-tolerant mutants 1-184A, 1-183A, 1-166A, 1-126A; assay: as above; format: in vivo, soybean
Method: as §1

[3] = system: mutants that have heritable sulfonylurea tolerance; assay: Pilot studies, threshold concentration in hydroponic system; format: in vivo, soybean; conditions: sulfonylurea tolerant mutants, 100 mg/L used to irrigate the hydroponic system
Excerpt: (§2) The same sulfonylurea concentrations would select only highly resistant plants.

wild type soybeans = assay: as above; format: in vivo, soybean; conditions: 100 mg/L used to irrigate the hydroponic system
Excerpt: as §2

tolerant tomato lines = conditions: cited from earlier work
original cultivar = conditions: original tomato cultivar; cited from earlier work

Row | SMILES | formation of unifoliolate leaves and secondary roots [1] | formation of unifoliolate leaves and secondary roots ([2]; tolerant mutant plants, 100 ppb in nutrient solution, 10 days after planting) | further development on prolonged exposure ([2]; tolerant mutants, 100 ppb, 20 to 28 days) | leaf formation [3] | leaf and root development (wild type soybeans) | reduction in seedling weight (tolerant tomato lines) | reduction in seedling weight (original cultivar)
1 | COc1cc(OC)nc(NC(=O)NS(=O)(=O)c2cccc3c2S(=O)(=O)C(C)C3)n1 (single isomer, unassigned) [Compound 12, N-[[(4,6-dimethoxy-2-pyrimidinyl)amino]carbonyl]-2,3,-dihydro-2-methylbenzo [B] thiophene-7-sulfonamide, 1,1-dioxide] | could not | able to form both unifoliolate leaves and secondary roots | prevented further development | allow unifoliolate (but not trifoliolate) formation | consistently stunt or inhibit leaf and root development | – | –
2 | CN(C)C(=O)C(c1ccccc1)c1ccccc1 [diphenamid] | – | – | – | – | – | 25% | 40%
